Reference: patent US20070213411A1, “Dispersions And Methods Of Preparing Them” (The Australian National University, priority 2003, published 2007)

What was measured:
[1] = Dispersion in water and its stability after vigorous shaking, de-gassed versus gassed (turbidity, visual); type: physicochemical; details: for time the dispersion is maintained / stable: de-gassed mixture in water after vigorous shaking, no added dispersants; for quality of dispersion in water (turbidity / visual): de-gassed; for quality of dispersion in water (turbidity / visual) / quality of dispersion in water (visual): after vigorous shaking; for quality of dispersion in water (visual): gassed
Protocol: (§1) The enhancement of oil droplet dispersion in water is most easily monitored using turbidity measurements. This enhancement can be measured by the difference between the new system (degassed) and the gassed blank, following vigorous shaking. […] Turbidity is a measure of how many droplets are dispersed in a given phase and is measured in NTU (nephelometric turbidity units) and in the results presented here is measured by light scattering. To give an understanding of the magnitude of these turbidity values, distilled water has a turbidity of 0.02 NTU, while tap water has a value of 1-2 NTU. Although useful, NTU measurements are of limited value and the results can be inaccurate if the refractive index of the dispersed phase is close to that of the dispersing phase (such as with perfluorocarbons in water) and so in some cases dynamic light scattering (DLS) has been used to obtain the droplet size distribution, as well as the charge on the oil droplets. However, careful interpretation of the DLS results is required for poly-disperse samples. Mono-disperse samples show size distribution by volume graphs (see later) over similar size ranges to the Z-average (diameter) and have a small PDI value (poly-dispersity index). The magnitude of the PDI is a measure of poly-dispersity. For poly-disperse samples the Z-average is the best estimate of average droplet size.
(§2) Mixtures of oil and water were de-gassed by a process of repeated freezing in liquid nitrogen, followed by pumping down to a pressure of 0.01 mbar and then melting in a sealed tube. The dissolved gas produced on each melting cycle was removed on re-freezing. Although this process was carried out five times, typically no further de-gassing on melting was observed after 3-4 cycles. […] (It should be noted that membrane separators and vacuum towers are used to de-gas liquids commercially.)
(§3) Dispersion of oil in water was achieved by vigorous shaking of the mixture for 8 sec in a sealed Pyrex tube. Turbidity was measured using an HF Scientific Micro 100 Turbidimeter. Particle sizes and zeta potentials were measured using a Malvern Zetasizer.

[2] = cited from earlier work; for Surface tension: against air; for Interfacial tension: against water
[3] = Theoretical water droplet contact angle on the oil surface (Young's wetting equation); type: physicochemical; details: calculated by Young's wetting equation
Protocol: This can be attributed to the fact that the more soluble oils undergo Ostwald ripening, allowing rapid oil droplet growth. The more hydrophobic an oil the better it is for use in methods described herein as Ostwald ripening cannot occur. A degree of hydrophobicity can be estimated by applying the Young's wetting equation to a theoretical liquid/liquid drop profile. A theoretical water droplet contact angle on the oil surface can be calculated, and if this angle is higher than about 80°, preferably higher than 90° then the oil is sufficiently hydrophobic. For example, for dodecane, the theoretical droplet contact angle is 110°. However, it should be noted that selection of a suitable carrier liquid or oil according to theoretical contact angles is a guide only and that liquids or oils having a theoretical contact angle of about 80° are not necessarily less preferred than those having a higher theoretical contact angle.

[4] = Droplet size distribution of oil-in-water dispersions by dynamic light scattering (Malvern Zetasizer); type: physicochemical; details: 0.2 ml/25 ml water
Protocol: as §1, §2, §3

[5] = Zeta potential of oil droplets (Malvern Zetasizer); type: physicochemical; details: de-gassed mixture in water
Protocol: as §2, §3

| Compound | time the dispersion is maintained / stable [1] | Theoretical contact angle (water droplet on oil surface) [3] | quality of dispersion in water (turbidity / visual) [1] | Surface tension [2] | Interfacial tension [2] | also measured |
| --- | --- | --- | --- | --- | --- | --- |
| FC(F)(F)C(F)(F)C(F)(F)C(F)(F)C(F)(F)C(F)(F)F [C6F14, perfluorohexane] | many hours | 111° ^ | readily dispersed | 11.91 mN/m | 38 mN/m | time to phase separation after vigorous shaking ([1]; gassed mixture, 0.2 ml/25 ml water): less than a minute |
| FC(F)(F)C(F)(F)C(F)(F)C(F)(F)C(F)(F)C(F)(F)C(F)(F)F [C7F16, perfluoroheptane] |  | 112°^ |  | 12.85 mN/m | 39.7 mN/m |  |
| FC(F)(F)C(F)(F)C(F)(F)C(F)(F)C(F)(F)C(F)(F)C(F)(F)C(F)(F)F [C8F18, perfluorooctane] |  | 113° ^ |  | 14.00 mN/m | 42 mN/m |  |
| CC(C)c1cccc(C(C)C)c1O [Propofol, 2,6-diisopropyl phenol] | many hours |  | complete dispersion of the oil |  |  | effect of added salt on the dispersion ([1]; de-gassed dispersion exposed to high salt levels, above those found in human blood): unaffected by the addition of salt; quality of dispersion in water (visual) [1]: many large, visible droplets of the oil |
| COC1=CC(=O)C[C@@H](C)[C@]12Oc1c(Cl)c(OC)cc(OC)c1C2=O [griseofulvin] |  |  | clearly well dispersed |  |  | turbidity after dispersion by vigorous shaking ([1]; 0.05 g dissolved in 10 ml soybean oil, 0.2 ml of this dispersed in 25 ml water): the same as those obtained for soybean oil alone; quality of dispersion in water (visual) [1]: solid clumps and a more transparent solution |

Further lines, with some results ahead:

| time the dispersion is maintained / stable [1] | Theoretical contact angle (water droplet on oil surface) [3] | Compound | quality of dispersion in water (turbidity / visual) [1] | Surface tension [2] | Interfacial tension [2] | also measured |
| --- | --- | --- | --- | --- | --- | --- |
| many hours | 113° | FC(F)(F)C(F)(F)C(F)(F)C(F)(F)C(F)(F)C(F)(F)C(F)(F)C(F)(F)Br [Perflubron, perfluorooctyl bromide] | enhanced dispersion due to de-gassing is observed | 18 mN/m | 47 mN/m | average droplet diameter ([4]; de-gassed, 1 hour after vigorous shaking): about 0.6 microns; PDI (poly-dispersity index) ([4]; de-gassed, at one hour): 0.430; Z-average size ([4]; de-gassed, at one hour): 599.6 nm; droplet size of size graph (Diam) ([4]; de-gassed, at one hour): 437.6 nm; PDI (poly-dispersity index) ([4]; gassed, after 1 hour): 0.674; Z-average size ([4]; gassed, at one hour): 1176 nm; zeta potential of droplets [5]: −42 mV |
|  | 110 ° | CCCCCCCCCCCC [dodecane, reference compound] |  |  |  |  |
